Measurements from patent publication US11945822B2, “Pyrazolo-triazine and/or pyrazolo-pxrimidine derivatives as selective inhibitor of cyclin dependent kinase” (QURIENT CO., LTD., priority 2018, dated 2024).

Target: T1, CDK1/Cyclin B (Homo sapiens, UniProt P06493)
T1 construct: purchased Invitrogen PR4768C
Test: Enzymatic assay for CDK1 (FRET based LANCE Ultra kinase assay)
Type: biochemical
Details: read-out: CDK1 enzymatic activity (IC50 range)
Procedure, shortened: (§1)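 Each CDK complex ([…]) phosphorylated 68 nM ULight-MBP peptide with ATP at Km for 60 min at 23° C., against 8 compound doses (4-fold dilutions). EDTA/Eu-anti-phospho-MBP detection, 60 min, then TR-FRET emission at 615 and 665 nm.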

T1 sequence (P06493 whole entry): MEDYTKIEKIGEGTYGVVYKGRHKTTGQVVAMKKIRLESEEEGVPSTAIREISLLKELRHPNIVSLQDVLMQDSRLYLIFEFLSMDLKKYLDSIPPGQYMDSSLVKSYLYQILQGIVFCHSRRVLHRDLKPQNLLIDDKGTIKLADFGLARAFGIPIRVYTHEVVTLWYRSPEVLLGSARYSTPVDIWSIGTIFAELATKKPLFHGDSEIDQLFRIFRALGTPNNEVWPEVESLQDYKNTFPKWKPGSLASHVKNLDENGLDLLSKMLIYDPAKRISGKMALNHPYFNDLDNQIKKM
T1 sequence (P14635 whole entry partner): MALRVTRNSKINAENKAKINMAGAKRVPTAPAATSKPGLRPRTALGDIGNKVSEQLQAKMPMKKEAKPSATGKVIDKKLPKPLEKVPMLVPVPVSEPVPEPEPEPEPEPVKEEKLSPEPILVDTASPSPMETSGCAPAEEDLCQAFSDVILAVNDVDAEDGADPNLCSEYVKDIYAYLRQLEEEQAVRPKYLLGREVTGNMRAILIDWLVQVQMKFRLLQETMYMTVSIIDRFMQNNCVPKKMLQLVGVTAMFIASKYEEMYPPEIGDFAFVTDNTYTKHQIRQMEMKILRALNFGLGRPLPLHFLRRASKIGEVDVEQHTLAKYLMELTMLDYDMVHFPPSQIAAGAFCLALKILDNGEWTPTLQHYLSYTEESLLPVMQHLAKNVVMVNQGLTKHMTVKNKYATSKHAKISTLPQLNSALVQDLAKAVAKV

IC50 | SMILES
> 1000 nM | CNC(=O)c1cc2cn(-c3ccccc3CNc3nc(N4CCC(N)CC4)nc4c(C(C)C)cnn34)nc2cc1C [Compound 160]
100 to 1000 nM | CC(C)c1cnn2c(NCc3ccccc3-n3ccc(C(=O)NC4CCOCC4)n3)nc(N3CCC(N)CC3)nc12 [Compound 177]
100 to 1000 nM | CC(C)c1cnn2c(NCc3ccccc3-n3cc(N4CCNCC4)cn3)nc(N3CCC(N)CC3)nc12 [Compound 180]

Target: T2, CDK2/Cyclin A (Homo sapiens, UniProt P24941)
T2 construct: purchased Invitrogen PV6290
Test: Enzymatic assay for CDK2 (FRET based LANCE Ultra kinase assay)
Type: biochemical
Details: read-out: CDK2 enzymatic activity (IC50 range)
Procedure, shortened: as §1

IC50 | SMILES
100 to 1000 nM | CNC(=O)c1cc2cn(-c3ccccc3CNc3nc(N4CCC(N)CC4)nc4c(C(C)C)cnn34)nc2cc1C [Compound 160]
100 to 1000 nM | CC(C)c1cnn2c(NCc3ccccc3-n3ccc(C(=O)NC4CCOCC4)n3)nc(N3CCC(N)CC3)nc12 [Compound 177]
100 to 1000 nM | CC(C)c1cnn2c(NCc3ccccc3-n3cc(N4CCNCC4)cn3)nc(N3CCC(N)CC3)nc12 [Compound 180]

Test system: MM.1S
Test: Cellular MM.1S viability assay (CellTiter-Glo, 72 hours)
Type: cell-based
Details: Homo sapiens, MM1.S
Source text: Human T-cell acute lymphoblastic leukemia cell line, MOLT-4 (ATCC, Cat #CRL-1582), Human multiple myeloma cell line, RPMI-8226 (Invitrogen, Cat #22400-089) and MM.1S (ATCC, Cat #CRL-2974), NSCLC (Non-small cell lung cancer) cell line H460 (ATCC, Cat #HTB-177), Human colon colorectal carcinoma cell line HCT116 (ATCC, Cat #CCL-247), Human acute monocytic leukemia cell line MV4-11 (ATCC, Cat #CRL-9591), OVCAR-3 (ATCC, Cat #HTB-161) and A2780 (ECACC, Cat #93112519) were obtained from ATCC. Cells were grown in RPMI-1640 media (Invitrogen, Cat #22400-089) supplemented with 10% FBS (Invitrogen, Cat #10099141) and 1% penicillin/streptomycin (Invitrogen, Cat #15070063) and cultured at 37° C., 5% CO2 in a humidified chamber. All cell lines were routinely tested for mycoplasma.
The effect of the CDK7 inhibitor to inhibit the growth of target cancer cells was evaluated through the 72 hours time period of viability assay. Briefly, the candidate cell line ware plated in 96 well plate at the following density of cells respectively. 1×10^4 cells/well for MOLT-4, RPMI-8226, MV4-11 and MM.1S, 5×10^3 for H460, HCT116 and OVCAR-3 and IX 10^3 for A2780. After 24 hours, the cells were treated with various concentrations of the compound (ranging from 0.0015 uM to 10 uM). DMSO solvent without compound served as a control and final DMSO concentration less than 0.1%. After 72 hours of incubation at 37° C., 5% CO2 incubator, cells were analyzed for the viability using the CellTiter-Glo Luminescent Cell Viability Assay (Promega, Cat #G7570). All viability assays were performed in duplicate and Luminescence was read using an Envision (Perkin Elmer, USA). Data was analyzed using XLfit software.

IC50 | SMILES
≤ 1000 nM | CNC(=O)c1cc2cn(-c3ccccc3CNc3nc(N4CCC(N)CC4)nc4c(C(C)C)cnn34)nc2cc1C [Compound 160]
≤ 1000 nM | CC(C)c1cnn2c(NCc3ccccc3-n3ccc(C(=O)NC4CCOCC4)n3)nc(N3CCC(N)CC3)nc12 [Compound 177]
≤ 1000 nM | CC(C)c1cnn2c(NCc3ccccc3-n3cc(N4CCNCC4)cn3)nc(N3CCC(N)CC3)nc12 [Compound 180]

Target: T3, CDK5/p25 (Homo sapiens, UniProt Q00535)
T3 construct: purchased Invitrogen PR8543B
Test: Enzymatic assay for CDK5 (FRET based LANCE Ultra kinase assay)
Type: biochemical
Details: read-out: CDK5 enzymatic activity (IC50 range)
Procedure, shortened: as §1

T3 sequence (Q00535 whole entry): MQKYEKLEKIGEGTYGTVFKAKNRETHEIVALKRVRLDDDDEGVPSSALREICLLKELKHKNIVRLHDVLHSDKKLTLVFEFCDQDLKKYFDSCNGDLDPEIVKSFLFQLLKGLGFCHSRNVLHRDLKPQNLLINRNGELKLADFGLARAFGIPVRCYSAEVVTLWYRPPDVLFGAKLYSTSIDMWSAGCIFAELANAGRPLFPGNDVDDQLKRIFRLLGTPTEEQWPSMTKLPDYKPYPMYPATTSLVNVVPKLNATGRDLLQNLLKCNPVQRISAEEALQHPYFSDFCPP
T3 sequence (Q15078 99-307 partner limits assumed): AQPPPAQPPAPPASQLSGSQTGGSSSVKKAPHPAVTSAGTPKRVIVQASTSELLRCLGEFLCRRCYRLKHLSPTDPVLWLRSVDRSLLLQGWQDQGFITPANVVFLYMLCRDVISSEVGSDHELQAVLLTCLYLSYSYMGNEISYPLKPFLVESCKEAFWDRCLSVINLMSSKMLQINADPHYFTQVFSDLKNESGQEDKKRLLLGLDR

IC50 | SMILES
100 to 1000 nM | CNC(=O)c1cc2cn(-c3ccccc3CNc3nc(N4CCC(N)CC4)nc4c(C(C)C)cnn34)nc2cc1C [Compound 160]
< 100 nM | CC(C)c1cnn2c(NCc3ccccc3-n3ccc(C(=O)NC4CCOCC4)n3)nc(N3CCC(N)CC3)nc12 [Compound 177]
< 100 nM | CC(C)c1cnn2c(NCc3ccccc3-n3cc(N4CCNCC4)cn3)nc(N3CCC(N)CC3)nc12 [Compound 180]

Target: T4, CDK7/Cyclin H/MNAT1 (Homo sapiens, UniProt P50613)
T4 construct: purchased Invitrogen PR6749B
Test: Enzymatic assay for CDK7 (FRET based LANCE Ultra kinase assay)
Type: biochemical
Details: CDK7 over CDK1
Procedure, shortened: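 Inhibition was measured at Km ATP by time-resolved FRET between a Eu anti-phospho antibody and a phosphorylated ULight peptide. The enzyme was the purified CDK7/cyclin complex, and data were curve-fitted.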

T4 sequence (P50613 whole entry): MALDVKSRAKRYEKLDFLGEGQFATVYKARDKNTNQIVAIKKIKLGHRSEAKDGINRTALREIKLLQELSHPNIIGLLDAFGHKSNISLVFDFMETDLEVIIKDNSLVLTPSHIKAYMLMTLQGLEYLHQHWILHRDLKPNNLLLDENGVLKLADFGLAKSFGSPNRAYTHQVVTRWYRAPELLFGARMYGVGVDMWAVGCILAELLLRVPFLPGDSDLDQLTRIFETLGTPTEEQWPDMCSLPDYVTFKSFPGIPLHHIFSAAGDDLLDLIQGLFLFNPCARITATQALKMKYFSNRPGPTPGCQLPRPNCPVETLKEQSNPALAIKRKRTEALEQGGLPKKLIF
T4 sequence (P51946 whole entry partner): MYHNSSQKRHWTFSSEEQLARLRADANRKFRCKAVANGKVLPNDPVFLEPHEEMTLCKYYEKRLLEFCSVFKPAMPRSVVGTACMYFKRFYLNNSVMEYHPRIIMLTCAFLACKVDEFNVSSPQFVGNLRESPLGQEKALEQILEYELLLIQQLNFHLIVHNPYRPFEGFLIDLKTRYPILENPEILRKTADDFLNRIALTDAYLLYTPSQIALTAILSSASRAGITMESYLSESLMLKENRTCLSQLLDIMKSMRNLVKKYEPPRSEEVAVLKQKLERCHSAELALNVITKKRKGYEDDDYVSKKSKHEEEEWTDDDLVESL
T4 sequence (P51948 whole entry partner): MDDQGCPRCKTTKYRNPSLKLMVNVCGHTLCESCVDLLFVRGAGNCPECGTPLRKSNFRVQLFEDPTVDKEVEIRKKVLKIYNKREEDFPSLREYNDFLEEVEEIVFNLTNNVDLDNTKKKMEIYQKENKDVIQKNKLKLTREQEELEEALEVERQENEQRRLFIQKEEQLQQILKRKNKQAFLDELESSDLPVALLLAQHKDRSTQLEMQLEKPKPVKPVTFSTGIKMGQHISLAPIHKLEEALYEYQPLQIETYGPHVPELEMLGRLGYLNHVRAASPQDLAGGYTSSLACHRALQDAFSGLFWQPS

CDK1/CDK7: Selectivity of CDK7 inhibition over CDK1 inhibition | SMILES
A (A=greater than 200 fold) | CNC(=O)c1cc2cn(-c3ccccc3CNc3nc(N4CCC(N)CC4)nc4c(C(C)C)cnn34)nc2cc1C [Compound 160]
A (A=greater than 200 fold) | CC(C)c1cnn2c(NCc3ccccc3-n3ccc(C(=O)NC4CCOCC4)n3)nc(N3CCC(N)CC3)nc12 [Compound 177]

SMILES | CDK1/CDK7: Selectivity of CDK7 inhibition over CDK1 inhibition
CC(C)c1cnn2c(NCc3ccccc3-n3cc(N4CCNCC4)cn3)nc(N3CCC(N)CC3)nc12 [Compound 180] | B (B=less than 200 fold, but greater than 20 fold)

Same assay, conditions: CDK7 over CDK2

SMILES | CDK2/CDK7: Selectivity of CDK7 inhibition over CDK2 inhibition
CNC(=O)c1cc2cn(-c3ccccc3CNc3nc(N4CCC(N)CC4)nc4c(C(C)C)cnn34)nc2cc1C [Compound 160] | B (B=less than 200 fold, but greater than 20 fold)
CC(C)c1cnn2c(NCc3ccccc3-n3ccc(C(=O)NC4CCOCC4)n3)nc(N3CCC(N)CC3)nc12 [Compound 177] | B (B=less than 200 fold, but greater than 20 fold)
CC(C)c1cnn2c(NCc3ccccc3-n3cc(N4CCNCC4)cn3)nc(N3CCC(N)CC3)nc12 [Compound 180] | B (B=less than 200 fold, but greater than 20 fold)

Same assay, conditions: CDK7 over CDK5

CDK5/CDK7: Selectivity of CDK7 inhibition over CDK5 inhibition | SMILES
C (C=less than 20 fold) | CC(C)c1cnn2c(NCc3ccccc3-n3ccc(C(=O)NC4CCOCC4)n3)nc(N3CCC(N)CC3)nc12 [Compound 177]
C (C=less than 20 fold) | CC(C)c1cnn2c(NCc3ccccc3-n3cc(N4CCNCC4)cn3)nc(N3CCC(N)CC3)nc12 [Compound 180]

SMILES | CDK5/CDK7: Selectivity of CDK7 inhibition over CDK5 inhibition
CNC(=O)c1cc2cn(-c3ccccc3CNc3nc(N4CCC(N)CC4)nc4c(C(C)C)cnn34)nc2cc1C [Compound 160] | B (B=less than 200 fold, but greater than 20 fold)

Same assay, conditions: read-out: CDK7 enzymatic activity (IC50 range)

IC50 | SMILES
< 100 nM | CNC(=O)c1cc2cn(-c3ccccc3CNc3nc(N4CCC(N)CC4)nc4c(C(C)C)cnn34)nc2cc1C [Compound 160]
< 100 nM | CC(C)c1cnn2c(NCc3ccccc3-n3ccc(C(=O)NC4CCOCC4)n3)nc(N3CCC(N)CC3)nc12 [Compound 177]
< 100 nM | CC(C)c1cnn2c(NCc3ccccc3-n3cc(N4CCNCC4)cn3)nc(N3CCC(N)CC3)nc12 [Compound 180]

Test system: HCT116
Test: Cellular HCT116 viability assay (CellTiter-Glo, 72 hours)
Type: cell-based
Details: Homo sapiens, HCT-116
Procedure, shortened: (§2)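 Growth inhibition is assessed over a 72-hour incubation at 37 °C in 5% CO2, relative to DMSO vehicle (final concentration less than 0.1%). Luminescence from CellTiter-Glo serves as the viability signal.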

IC50 | SMILES
< 1000 nM | CNC(=O)c1cc2cn(-c3ccccc3CNc3nc(N4CCC(N)CC4)nc4c(C(C)C)cnn34)nc2cc1C [Compound 160]
< 1000 nM | CC(C)c1cnn2c(NCc3ccccc3-n3ccc(C(=O)NC4CCOCC4)n3)nc(N3CCC(N)CC3)nc12 [Compound 177]
< 1000 nM | CC(C)c1cnn2c(NCc3ccccc3-n3cc(N4CCNCC4)cn3)nc(N3CCC(N)CC3)nc12 [Compound 180]

Test system: MV4-11
Test: Cellular MV4-11 viability assay (CellTiter-Glo, 72 hours)
Type: cell-based
Details: Homo sapiens
Procedure, shortened: as §2

IC50 | SMILES
< 1000 nM | CNC(=O)c1cc2cn(-c3ccccc3CNc3nc(N4CCC(N)CC4)nc4c(C(C)C)cnn34)nc2cc1C [Compound 160]
< 1000 nM | CC(C)c1cnn2c(NCc3ccccc3-n3ccc(C(=O)NC4CCOCC4)n3)nc(N3CCC(N)CC3)nc12 [Compound 177]
< 1000 nM | CC(C)c1cnn2c(NCc3ccccc3-n3cc(N4CCNCC4)cn3)nc(N3CCC(N)CC3)nc12 [Compound 180]

Test system: H460
Test: Cellular H460 viability assay (CellTiter-Glo, 72 hours)
Type: cell-based
Details: Homo sapiens, NCI-H460
Procedure, shortened: as §2

IC50 | SMILES
< 1000 nM | CNC(=O)c1cc2cn(-c3ccccc3CNc3nc(N4CCC(N)CC4)nc4c(C(C)C)cnn34)nc2cc1C [Compound 160]
< 1000 nM | CC(C)c1cnn2c(NCc3ccccc3-n3ccc(C(=O)NC4CCOCC4)n3)nc(N3CCC(N)CC3)nc12 [Compound 177]
< 1000 nM | CC(C)c1cnn2c(NCc3ccccc3-n3cc(N4CCNCC4)cn3)nc(N3CCC(N)CC3)nc12 [Compound 180]
